Among the data in PMC7527723, “Sex Steroids Induce Membrane Stress Responses and Virulence Properties in Pseudomonas aeruginosa” (mBio, 2020) are Kd values, retold here.

Experiment [1] has as its target T1, Vfr (Pseudomonas aeruginosa, UniProt P55222).
T1 construct: purified protein
The experiment in a line: biochemical. It is filed as binding.

Experiment [2] has as its target T2, Pseudomonas aeruginosa MucB protein (Pseudomonas aeruginosa, UniProt P38108 22-316).
T2 sequence: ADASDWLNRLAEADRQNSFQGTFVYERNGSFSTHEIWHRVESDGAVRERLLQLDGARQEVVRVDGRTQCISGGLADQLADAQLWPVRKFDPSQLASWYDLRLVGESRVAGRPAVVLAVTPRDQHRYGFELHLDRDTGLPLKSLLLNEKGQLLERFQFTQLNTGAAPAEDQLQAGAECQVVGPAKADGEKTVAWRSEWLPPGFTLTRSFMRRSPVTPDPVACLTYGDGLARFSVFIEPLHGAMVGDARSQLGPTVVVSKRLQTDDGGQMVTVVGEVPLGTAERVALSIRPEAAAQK
The experiment in a line: SPR; purified MucB subjected to MucA binding (control); which partner was immobilised, buffer and temperature are not told in the text shown. The settings on record: both partners purified. (SPR reads the build-up and loss of mass on a sensor chip optically.)

T1 sequence (P55222 whole entry): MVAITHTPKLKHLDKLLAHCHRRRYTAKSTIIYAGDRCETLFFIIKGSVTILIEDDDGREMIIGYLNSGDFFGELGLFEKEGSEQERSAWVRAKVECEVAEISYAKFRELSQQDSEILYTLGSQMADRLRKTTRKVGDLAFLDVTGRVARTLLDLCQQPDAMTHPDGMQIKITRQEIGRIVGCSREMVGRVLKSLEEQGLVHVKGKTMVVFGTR

One may read the Kd as a measure of binding affinity in units of concentration. A lower Kd goes with tighter binding. Regarding `C[C@]12CC[C@@H]3c4ccc(O)cc4CC[C@H]3[C@@H]1C[C@@H](O)[C@@H]2O` [E3, estriol], the Kd in experiment [1] lay within 750 to 782 µM.

`C[C@]12CC[C@H]3[C@@H](CCC4=CC(=O)CC[C@@]43C)[C@@H]1CC[C@@H]2O` [T, testosterone] showed a Kd in experiment [1] of 1700 to 1800 µM.

B1: MucA (natural protein)
chain: YNQNDALPQMAQQGTTPQIALPQVKGPAVLAGYSEEQGAPQVITNSSSSDTRWHEQRLPIYLRQHVQQSAVSGTESALPYARAASLENR
notes: also called anti-sigma factor
Take B1: the Kd in experiment [2] turned out to be 2.93 µM.
